# Test results reported in US20080299109A1, “MECHANISM OF ASTRICYTE-NEURON SIGNALING” (Korea Institute of Science and Technology, priority 2007, published 2008).
# Tests used:
# [1] = target: T1, NR1/NR2A receptors (Homo sapiens, UniProt Q05586+Q12879); assay: Glutamate-induced currents in NR1/NR2A transfected HEK 293 cells, perforated patch; format: cell-based; conditions: 30 nM thrombin 30 s, −60 mV and +60 mV
# T1 construct: expressed in transfected cells; host or cells: HEK 293 cells
# Description: Whole-cell perforated-patch recording from cultured cortical neurons or HEK cells under voltage clamp (holding potential −60 mV) was made with an Axopatch 200B amplifier (Axon Instruments, Union City, Calif.). The recording chamber was continually perfused with a recording solution comprised of 150 mM NaCl, 3 mM KCl, 2 mM CaCl2, 5.5 mM glucose, and 10 mM HEPES (pH 7.4 by NaOH; osmolality adjusted to 315-320 mOsm with sucrose). Recording electrodes (4-7 MΩ) were filled with (in mM) 150 mM CsMeSO4, 10 mM NaCl, 0.5 CaCl2, 10 mM HEPES, and 25-50 μg/ml gramicidin D (pH adjusted to 7.3 with CsOH and osmolality adjusted to 310 mOsm with sucrose). It took 20-30 min to achieve acceptable perforation with series resistance ranging from 30-60 MΩ. All electrophysiological data from cultured neurons cells in this study were collected at room temperature (23-26° C.).
# The external solution included 0.2 mM MgCl2, 2 mM CaCl2, 100 nM ZnCl2, and 50 μM glycine. […] The response from the same cell is shown after a treatment of 30 nM thrombin for 30 s. […] The peak amplitudes of glutamate-induced currents were compared before and after thrombin treatment at −60 mV and +60 mV holding potentials.
# [2] = test system: CA1 pyramidal neurons; assay: Ca2+ dye imaging of CA1 pyramidal neurons in hippocampal slices; format: cell-based, rat; conditions: thrombin 30 nM, TFLLR 30 μM, trans-ACPD 100 μM, (S)-3,5-dihydroxyphenylglycine 30 μM
# Description: Young rats (Sprague-Dawley, age P15-P20) or mice (C57/B16, age P14-19) were deeply anesthetized with isoflurane and decapitated. The brain was rapidly removed and submerged in an ice-cold oxygenated artificial cerebrospinal fluid (ACSF) comprised of 130 mM NaCl, 24 mM NaHCO3, 3.5 mM KCl, 1.25 mM NaH2PO4, 1 mM CaCl2,3 mM MgCl2, and 10 mM glucose saturated with 95% O2/5% CO2, at pH 7.4.
# The external solution contained 1 μM TTX. Throughout the experiments, −5 mV voltage steps (15 ms duration) were applied at 30 sec intervals from a holding potential of −70 mV to continuously monitor the holding current, series resistance, and membrane input resistance. After entering whole-cell mode, the CA1 pyramidal cells in slices were maintained for 20 min to allow for dye filling before image acquisition using a Princeton Micromax camera.
# After the baseline period, TFLLR (30-100 μM) was applied, and images were acquired every 3 sec with a 25 ms exposure to 450-490 nm light for each image. Ca^2+-dependent fluorescence intensity (520 nm) was measured in cell bodies and processes by using Axon Imaging Workbench (v2.2.1) and expressed as ratio image of (F-Fo)/Fo, where Fo is the fluorescence intensity before drug treatment.
# [3] = test system: cultured wild-type mouse astrocytes; assay: Fura-2 intracellular Ca2+ imaging in cultured wild-type astrocytes; format: cell-based; conditions: 30 nM thrombin
# Description: Cultured astrocytes were prepared from P0-P3 postnatal mice obtained from KIST SPF. The cerebral cortex was dissected free of adherent meninges, minced, and dissociated into single cell suspension by trituration through a Pasteur pipette. All procedures involving the use of animals were reviewed and approved by the Emory University IACUC. Dissociated cells were plated onto either 12 mm glass coverslips or 6 well plates coated with 0.1 mg/ml poly-D-lysine. Cells were grown in a DMEM media (Gibco, cat# 11960-044) supplemented with 25 mM glucose, 10% heat-inactivated horse serum, and 10% heat-inactivated fetal bovine serum, 2 mM glutamine, and 1000 units/ml penicillin-streptomycin. Cultures were maintained at 37° C. in a humidified 5% CO2-containing atmosphere. […] In some experiments, the culture media was replaced 24 hours after plating with DMEM with all added components except glutamine, and cultures were maintained for 4 days before experimentation in glutamine-free media.
# Cultured astrocytes were incubated with 5 µM Fura2-AM in […] pluronic acid (Molecular Probes) for 30 min at room temperature, and subsequently transferred to a microscope stage for imaging. The external solution contained 150 mM NaCl, 10 mM HEPES, 3 mM KCl, 2 mM CaCl2, 2 mM MgCl2, and 5.5 mM glucose, and the pH was adjusted to pH 7.3 and osmolarity to 325 mOsm. Intensity images of a 510 nm wavelength were taken at 340 nm and 380 nm excitation wavelengths using either a Micromax Camera (Princeton) or an intensified video camera (PTI), and the two resulting images were used for ratio calculations using Axon Imaging Workbench version 2.2.1.
# [4] = test system: CA1 pyramidal cells; assay: Voltage clamp of CA1 pyramidal cells in hippocampal slices, low Mg2+; format: cell-based, rat; conditions: −60 mV, thrombin 30 nM, TFLLR 30 μM, with and without APV
# T1 sequence (Q12879 23-1464, other chains not shown): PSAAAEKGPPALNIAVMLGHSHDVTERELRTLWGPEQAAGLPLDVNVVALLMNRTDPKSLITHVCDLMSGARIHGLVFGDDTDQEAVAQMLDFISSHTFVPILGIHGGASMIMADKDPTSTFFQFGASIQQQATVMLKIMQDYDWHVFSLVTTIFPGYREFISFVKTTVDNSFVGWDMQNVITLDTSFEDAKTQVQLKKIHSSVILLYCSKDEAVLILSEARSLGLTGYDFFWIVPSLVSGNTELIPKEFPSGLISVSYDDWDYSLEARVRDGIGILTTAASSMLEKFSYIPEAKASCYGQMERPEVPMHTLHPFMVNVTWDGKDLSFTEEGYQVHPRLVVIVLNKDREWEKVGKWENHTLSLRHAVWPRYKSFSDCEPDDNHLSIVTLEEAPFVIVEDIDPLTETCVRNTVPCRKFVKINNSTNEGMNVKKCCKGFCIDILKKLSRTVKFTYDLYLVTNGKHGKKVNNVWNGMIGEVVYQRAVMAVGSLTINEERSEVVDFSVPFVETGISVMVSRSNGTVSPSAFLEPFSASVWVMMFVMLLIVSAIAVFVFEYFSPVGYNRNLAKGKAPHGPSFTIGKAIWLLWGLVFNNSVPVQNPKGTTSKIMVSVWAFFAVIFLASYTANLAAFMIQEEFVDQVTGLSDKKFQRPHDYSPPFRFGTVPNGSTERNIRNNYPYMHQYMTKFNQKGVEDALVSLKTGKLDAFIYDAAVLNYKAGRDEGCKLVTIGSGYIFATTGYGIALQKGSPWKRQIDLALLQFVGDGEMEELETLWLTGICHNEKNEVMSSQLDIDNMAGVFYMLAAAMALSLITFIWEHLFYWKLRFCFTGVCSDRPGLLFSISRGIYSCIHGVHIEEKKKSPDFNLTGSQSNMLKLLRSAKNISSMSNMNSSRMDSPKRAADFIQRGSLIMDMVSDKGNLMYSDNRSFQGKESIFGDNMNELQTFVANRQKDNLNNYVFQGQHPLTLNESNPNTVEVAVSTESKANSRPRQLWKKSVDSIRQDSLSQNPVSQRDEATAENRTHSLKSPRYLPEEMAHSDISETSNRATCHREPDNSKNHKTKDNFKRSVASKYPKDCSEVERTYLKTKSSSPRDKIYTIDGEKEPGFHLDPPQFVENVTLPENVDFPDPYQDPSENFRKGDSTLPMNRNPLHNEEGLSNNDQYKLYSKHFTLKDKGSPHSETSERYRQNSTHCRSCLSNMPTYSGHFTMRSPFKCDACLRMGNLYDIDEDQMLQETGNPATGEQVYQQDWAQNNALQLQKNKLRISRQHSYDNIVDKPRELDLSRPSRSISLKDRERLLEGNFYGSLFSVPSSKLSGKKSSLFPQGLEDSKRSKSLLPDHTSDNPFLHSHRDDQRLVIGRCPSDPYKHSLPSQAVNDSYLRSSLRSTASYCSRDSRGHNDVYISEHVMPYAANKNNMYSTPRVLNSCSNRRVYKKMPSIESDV
substance,measurement,setting,value
thrombin,glutamate-induced current profile before and after thrombin,[1],no change
same,somatic fluorescence of Ca^2+-sensitive dyes in CA1 pyramidal neurons,[2],no significant increase
same,change in Fura-2 ratio,[3]; without or after pretreatment with 1 μM BMS200261,150.9±17.4%
same,level of astrocytic intracellular Ca^2+ (Fura-2 fluorescence ratio),"[3]; 30 μM TFLLR, 10 μM bradykinin, 50 μM 2-methyl-thio-ATP, 10 μM ATP",robust increase
same,amplitude of inward current,"[4]; 0.5 μM TTX, 5 μM Mg^2+",8.8±3.1 pA
same,membrane current variance,"[4]; TTX, low Mg^2+",12.4±1.1 pA^2
